Legend:
[1] = tested on: T1 generation OsALS W548 site and OsSWEET14 double-site edited seedlings; experiment: Resistance test of T1 generation OsALS W548L edited seedlings to ALS inhibitor herbicides; format: in vivo, Oryza sativa; conditions: for Resistance of OsALS W548L mutant strain: field concentrations
Procedure: After the propagation of TO strains in which the occurrence of OsALS W548L mutation was detected, the T1 generation mutant seedling strains were tested for herbicide resistance with pyroxsulam, imazapic, nicosulfuron and flucarbazone-Na at field concentrations.

[2] = tested on: T1 generation OsACCase2 W2038L edited seedlings; experiment: Resistance test of T1 generation OsACCase2 W2038L edited seedlings to ACCase inhibitor herbicides; format: in vivo, Oryza sativa; conditions: for Resistance of OsACCase2 W2038L mutant strain: field concentrations
Procedure: After the propagation of the TO strain containing the W2038L mutation, the T1 generation mutant seedlings were tested for herbicide resistance with quizalofop-p and haloxyfop-p in field concentrations.

Arabidopsis thaliana = experiment: Selection of Arabidopsis thaliana seedlings on imazapic medium; format: in vivo
Procedure: After the seeds of the T1 strain were harvested from single plant, the seeds of different strains of two vectors were selected and spread on the imazapic selection medium (MS medium+0.24 μg/mL imazapic) to perform selection, and the positive seedlings were transplanted to the soil one week later and subjected to molecular detection, in which the method was the same as step 5.

COc1nn(C(=O)[N-]S(=O)(=O)c2ccccc2OC(F)(F)F)c(=O)n1C.[Na+] [flucarbazone-Na] was tested, and the “Resistance of W548L edited strain QY360-7-9” value ([1]; 2 g/mu active ingredient of flucarbazone-Na) was “developed resistance” and the “Resistance of OsALS W548L mutant strain” value [1] was “significant resistance”.
In the case of COc1cc(OC)n2nc(NS(=O)(=O)c3c(C(F)(F)F)ccnc3OC)nc2n1 [pyroxsulam], the “Resistance of W548L edited strains QY360-7-2 and QY360-7-11” value ([1]; 2 g/mu active ingredient of pyroxsulam) was “developed resistance” and the “Resistance of OsALS W548L mutant strain” value [1] was “significant resistance”.
For C[C@@H](Oc1ccc(Oc2ncc(C(F)(F)F)cc2Cl)cc1)C(=O)O [Haloxyfop-p], the “Resistance of W2038L edited strains QY367-7-12 and QY367-7-18” value ([2]; 5 g/mu active ingredient of Haloxyfop-p) was “developed resistance” and the “Resistance of OsACCase2 W2038L mutant strain” value [2] was “significantly resistant”.
COc1cc(OC)nc(NC(=O)NS(=O)(=O)c2ncccc2C(=O)N(C)C)n1 [nicosulfuron] was tested, and the “Resistance of W548L edited strain QY360-7-11” value ([1]; 4 g/mu active ingredient of nicosulfuron) was “developed resistance” and the “Resistance of OsALS W548L mutant strain” value [1] was “significant resistance”.
With C[C@@H](Oc1ccc(Oc2cnc3cc(Cl)ccc3n2)cc1)C(=O)O [quizalofop-p] the “Resistance of W2038L edited strains QY367-5-10 and QY367-5-21” value ([2]; 5 g/mu active ingredient of quizalofop-p) was “developed resistance” and the “Resistance of OsACCase2 W2038L mutant strain” value [2] was “significantly resistant”.
Cc1cnc(C2=NC(=O)C(C)(C(C)C)N2)c(C(=O)O)c1 (stereo not drawn) [imazapic] was tested, and the “Resistance of W548L edited strain QY360-7-11” value ([1]; 7 g/mu active ingredient of imazapic) was “developed resistance”, the “Resistance of OsALS W548L mutant strain” value [1] was “significant resistance” and the “Response of W574M edited T1 plant to imazapic treatment” value (Arabidopsis thaliana; Example 3) was “showed resistance”. The “Growth of wild-type Col-0 on imazapic resistant medium” value (Arabidopsis thaliana; MS medium + 0.24 μg/mL imazapic) was “could not grow” and the “Growth of positive plants of the mutant strains on imazapic resistant medium” value (Arabidopsis thaliana; MS medium + 0.24 μg/mL imazapic, T2) was “could grow normally”.

Reference: patent US20230287389A1, “A METHOD FOR GENERATING NEW MUTATION IN ORGANISM AND USE THEREOF” (Qingdao Kingagroot Chemical Compound Co., Ltd., priority 2019, published 2023)
